In ChEMBL document CHEMBL5096214, “Discovery of a new class of valosine containing protein (VCP/P97) inhibitors for the treatment of colorectal cancer” (Bioorg Med Chem, 2022):
Each block holds one compound with its values, some of them ahead of it. Active and inactive are the calls of the source. The calls are words filed in the database; no cut-off is given here.

Legend:
[1] = test system: HCT-116; assay: Anti-proliferative activity against human HCT-116 cells assessed as inhibition of cell proliferation incubated for 72 hrs by CellTiter-Glo luminescent assay; type: functional, cell-based; settings: HCT-116, 72 h
[2] = biological target: Transitional endoplasmic reticulum ATPase (Homo sapiens, UniProt P55072); assay: Inhibition of p97 (unknown origin) using ATP as substrate incubated for 60 mins by ADP-Glo reagent based luminescence assay
Transitional endoplasmic reticulum ATPase, sequence (P55072 whole entry): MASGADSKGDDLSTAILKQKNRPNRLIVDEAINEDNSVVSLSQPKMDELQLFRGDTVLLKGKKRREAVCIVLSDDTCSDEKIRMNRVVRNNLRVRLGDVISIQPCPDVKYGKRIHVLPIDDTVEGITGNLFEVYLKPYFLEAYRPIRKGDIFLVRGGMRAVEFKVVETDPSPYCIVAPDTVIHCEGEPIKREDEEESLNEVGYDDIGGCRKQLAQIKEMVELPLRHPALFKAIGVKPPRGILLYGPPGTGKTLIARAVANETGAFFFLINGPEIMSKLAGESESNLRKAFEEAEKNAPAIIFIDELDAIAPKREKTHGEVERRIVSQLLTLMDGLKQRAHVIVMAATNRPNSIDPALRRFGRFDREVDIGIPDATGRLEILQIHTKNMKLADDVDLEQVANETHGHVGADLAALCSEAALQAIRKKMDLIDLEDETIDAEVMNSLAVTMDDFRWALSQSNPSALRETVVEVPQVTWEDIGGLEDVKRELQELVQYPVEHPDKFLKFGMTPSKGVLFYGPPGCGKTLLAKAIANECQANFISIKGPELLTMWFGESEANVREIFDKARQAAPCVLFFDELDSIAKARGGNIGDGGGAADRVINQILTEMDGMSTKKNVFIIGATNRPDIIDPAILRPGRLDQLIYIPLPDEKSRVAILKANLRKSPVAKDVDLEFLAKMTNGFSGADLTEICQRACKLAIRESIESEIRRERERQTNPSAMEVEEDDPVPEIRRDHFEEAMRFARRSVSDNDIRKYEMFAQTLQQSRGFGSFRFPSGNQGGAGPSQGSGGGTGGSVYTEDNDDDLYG

[3] = Elimination half life in Sprague-Dawley rat at 1 mg/kg, iv measured for 24 hrs by LC-MS/MS analysis; type: ADME, organism-based; settings: in vivo, read-out: beta t1/2 (converted)
[4] = AUC (0 to t) in Sprague-Dawley rat at 1 mg/kg, iv measured for 24 hrs by LC-MS/MS analysis; type: ADME, organism-based; parameters: time 24 hrs, dose 1 mg/kg, route iv; settings: in vivo
[5] = AUC (0 to infinity) in Sprague-Dawley rat at 1 mg/kg, iv by LC-MS/MS analysis; type: ADME, organism-based; parameters: time infinity, dose 1 mg/kg, route iv; settings: in vivo
[6] = MRT in Sprague-Dawley rat at 1 mg/kg, iv measured for 24 hrs by LC-MS/MS analysis; type: ADME, organism-based; settings: in vivo
[7] = Cmax in Sprague-Dawley rat at 10 mg/kg, po measured for 30 hrs by LC-MS/MS analysis; type: ADME, organism-based; parameters: dose 10 mg/kg, time 30 hrs, route po; settings: in vivo
[8] = Tmax in Sprague-Dawley rat at 10 mg/kg, po measured for 30 hrs by LC-MS/MS analysis; type: ADME, organism-based; settings: in vivo
[9] = Elimination half life in Sprague-Dawley rat at 10 mg/kg, po measured for 30 hrs by LC-MS/MS analysis; type: ADME, organism-based; settings: in vivo, read-out: beta t1/2 (converted)
[10] = AUC (0 to t) in Sprague-Dawley rat at 10 mg/kg, po measured for 30 hrs by LC-MS/MS analysis; type: ADME, organism-based; parameters: dose 10 mg/kg, time 30 hrs, route po; settings: in vivo
[11] = AUC (0 to infinity) in Sprague-Dawley rat at 10 mg/kg, po by LC-MS/MS analysis; type: ADME, organism-based; parameters: time infinity, dose 10 mg/kg, route po; settings: in vivo
[12] = MRT in Sprague-Dawley rat at 10 mg/kg, po measured for 30 hrs by LC-MS/MS analysis; type: ADME, organism-based; settings: in vivo
[13] = Oral bioavailability in Sprague-Dawley rat at 10 mg/kg measured for 30 hrs by LC-MS/MS analysis; type: ADME, organism-based; settings: in vivo
[14] = Half life in human liver microsomes at 1 uM in presence of beta-NADPH measured for 60 mins by LC-MS/MS analysis; type: ADME, Microsome
[15] = Half life in mouse liver microsomes at 1 uM in presence of beta-NADPH measured for 60 mins by LC-MS/MS analysis; type: ADME, Microsome
[16] = Half life in rat liver microsomes at 1 uM in presence of beta-NADPH measured for 60 mins by LC-MS/MS analysis; type: ADME, Microsome
[17] = Half life in dog liver microsomes at 1 uM in presence of beta-NADPH measured for 60 mins by LC-MS/MS analysis; type: ADME, Canis lupus familiaris, Microsome
[18] = Half life in monkey liver microsomes at 1 uM in presence of beta-NADPH measured for 60 mins by LC-MS/MS analysis; type: ADME, Macaca mulatta, Microsome; settings: rhesus monkey
[19] = Intrinsic clearance in human liver microsomes at 1 uM in presence of beta-NADPH measured for 60 mins by LC-MS/MS analysis; type: ADME, Microsome; settings: read-out: CLH
[20] = Intrinsic clearance in mouse liver microsomes at 1 uM in presence of beta-NADPH measured for 60 mins by LC-MS/MS analysis; type: ADME, Microsome; settings: read-out: CLH
[21] = Intrinsic clearance in rat liver microsomes at 1 uM in presence of beta-NADPH measured for 60 mins by LC-MS/MS analysis; type: ADME, Microsome; settings: read-out: CLH
[22] = Intrinsic clearance in dog liver microsomes at 1 uM in presence of beta-NADPH measured for 60 mins by LC-MS/MS analysis; type: ADME, Canis lupus familiaris, Microsome; settings: read-out: CLH
[23] = Intrinsic clearance in monkey liver microsomes at 1 uM in presence of beta-NADPH measured for 60 mins by LC-MS/MS analysis; type: ADME, Macaca mulatta, Microsome; settings: rhesus monkey, read-out: CLH
[24] = Toxicity in BALB/c mouse xenografted with human HCT-116 cells assessed as body weight loss at 50 mg/kg, po qd for 21 days; type: organism-based; settings: in vivo, 504 h, time 21 day
[25] = Toxicity in BALB/c mouse xenografted with human HCT-116 cells assessed as side effects at 50 mg/kg, po qd for 21 days; type: organism-based; settings: in vivo, 504 h, time 21 day
[26] = Toxicity in BALB/c mouse xenografted with human HCT-116 cells assessed as side effects at 100 mg/kg, po measured on day 4; type: organism-based; settings: in vivo, 96 h, time 4 day
[27] = Toxicity in BALB/c mouse xenografted with human HCT-116 cells assessed as body weight loss at 100 mg/kg, po measured on day 4; type: organism-based; settings: in vivo, 96 h, time 4 day
[28] = Toxicity in BALB/c mouse xenografted with human HCT-116 cells assessed as animals death at 100 mg/kg, po measured on day 8; type: organism-based; settings: in vivo, 192 h, time 8 day
[29] = Cmax in Sprague-Dawley rat at 1 mg/kg, iv measured for 24 hrs by LC-MS/MS analysis; type: ADME, organism-based; parameters: dose 1 mg/kg, time 24 hrs, route iv; settings: in vivo
[30] = Tmax in Sprague-Dawley rat at 1 mg/kg, iv measured for 24 hrs by LC-MS/MS analysis; type: ADME, organism-based; settings: in vivo
[31] = test system: HCT-116; assay: Anti-tumor activity against human HCT-116 cells xenografted in BALB/c mouse assessed as reduction in tumor volume at 100 mg/kg, po qd for 21 days; type: functional, organism-based; settings: time 21.0 day
[32] = Toxicity in BALB/c mouse xenografted with human HCT-116 cells assessed as body weight loss at 100 mg/kg, po qd for 21 days; type: organism-based; settings: in vivo, 504 h, time 21 day
[33] = Toxicity in BALB/c mouse xenografted with human HCT-116 cells assessed as side effects at 100 mg/kg, po qd for 21 days; type: organism-based; settings: in vivo, 504 h, time 21 day

Structure (SMILES): Cc1cc2c(C(N)=O)cccc2n1-c1nc2c(c(NCc3ccccc3)n1)CCCN2
- IC50 [1]: 700 nM
- IC50 [2]: 44 nM
- half-life [3]: 22.8 min
- AUC(0-t) at 24 h [4]: 390 ng·h/mL
- AUC(0-inf) [5]: 398 ng·h/mL
- MRT [6]: 25.2 min
- Cmax [7]: 444 ng/mL
- Tmax [8]: 30 min
- half-life [9]: 73.8 min
- AUC(0-t) at 30 h [10]: 779 ng·h/mL
- AUC(0-inf) [11]: 796 ng·h/mL
- MRT [12]: 96 min
- bioavailability [13]: 20%
- half-life at 1 µM [14]: 35.9 min
- half-life at 1 µM [15]: 19.1 min
- half-life at 1 µM [16]: 7.9 min
- half-life at 1 µM [17]: 33 min
- half-life at 1 µM [18]: 9.8 min
- microsomal CLint at 1 µM [19]: 36.5 µL/min/mg
- microsomal CLint at 1 µM [20]: 176 µL/min/mg
- microsomal CLint at 1 µM [21]: 318 µL/min/mg
- microsomal CLint at 1 µM [22]: 60 µL/min/mg
- microsomal CLint at 1 µM [23]: 203 µL/min/mg
- Activity [24]: Non-Toxic
- Activity [25]: Non-Toxic
- Activity [26]: Toxic
- Activity [27]: Toxic
- Activity [28]: Toxic

Structure (SMILES): Cc1cc2c(NC(=O)/C=C/c3ccccc3)cccc2n1-c1nc2c(c(NCc3cccc(O)c3)n1)CCC2
- IC50 [2]: 3510 nM

Structure (SMILES): CONC(=O)c1cccc2c1cc(C)n2-c1nc2c(c(NCc3cccc(O)c3)n1)CCC2
- IC50 [1]: 300 nM
- IC50 [2]: 48 nM
- half-life [3]: 50.4 min
- AUC(0-t) at 24 h [4]: 94.8 ng·h/mL
- AUC(0-inf) [5]: 108 ng·h/mL
- MRT [6]: 73.8 min
- Cmax [7]: 52.5 ng/mL
- Tmax [8]: 30 min
- half-life [9]: 153 min
- AUC(0-t) at 30 h [10]: 108 ng·h/mL
- AUC(0-inf) [11]: 121 ng·h/mL
- MRT [12]: 201 min
- bioavailability [13]: 11.1%

Structure (SMILES): C/C=C/C(=O)Nc1cccc2c1cc(C)n2-c1nc2c(c(NCc3cccc(O)c3)n1)CCC2
- IC50 [1]: 2400 nM
- IC50 [2]: 96 nM

Structure (SMILES): CON(C)C(=O)c1cccc2c1cc(C)n2-c1nc2c(c(NCc3cccc(B(O)O)c3)n1)CCC2
- IC50 [2]: 1220 nM

Structure (SMILES): COc1ccc(/C=C/C(=O)Nc2cccc3c2cc(C)n3-c2nc3c(c(NCc4cccc(O)c4)n2)CCC3)cc1
- IC50 [2]: 2470 nM

Structure (SMILES): Cc1cc2c(NC(=O)c3cccs3)cccc2n1-c1nc2c(c(NCc3cccc(O)c3)n1)CCC2
- IC50 [2]: 185 nM

Structure (SMILES): Cc1cc2c(C(=N)N)cccc2n1-c1nc2c(c(NCc3cccc(O)c3)n1)CCC2
- IC50 [2]: 233 nM

More lines, in order of falling IC50 [2], values ahead:

- IC50 [2]: 863 nM
Structure (SMILES): CON(C)C(=O)c1cccc2c1cc(C)n2-c1nc2c(c(NCc3cccc(O)c3)n1)CCC2

- IC50 [2]: 216 nM
Structure (SMILES): Cc1cc2c(NC(=O)c3cscn3)cccc2n1-c1nc2c(c(NCc3cccc(O)c3)n1)CCC2

- IC50 [2]: 154 nM
Structure (SMILES): Cc1cc2c(C(N)=O)cccc2n1-c1nc2c(c(NCc3cccc(N)c3)n1)CCC2

- IC50 [1]: 800 nM
- IC50 [2]: 97 nM
Structure (SMILES): Cc1cc2c(NS(C)(=O)=O)cccc2n1-c1nc2c(c(NCc3cccc(O)c3)n1)CCC2

- IC50 [1]: 1400 nM
- IC50 [2]: 72 nM
Structure (SMILES): CCONC(=O)c1cccc2c1cc(C)n2-c1nc2c(c(NCc3cccc(B(O)O)c3)n1)CCC2

- IC50 [1]: 1000 nM
- IC50 [2]: 54 nM
Structure (SMILES): CONC(=O)c1cccc2c1cc(C)n2-c1nc2c(c(NCc3cccc(B(O)O)c3)n1)CCC2

- IC50 [1]: 400 nM
- IC50 [2]: 53 nM
- Cmax [29]: 284 ng/mL
- Tmax [30]: 4.8 min
- half-life [3]: 168 min
- AUC(0-t) at 24 h [4]: 142 ng·h/mL
- AUC(0-inf) [5]: 147 ng·h/mL
- MRT [6]: 67.2 min
- Cmax [7]: 130 ng/mL
- Tmax [8]: 30 min
- half-life [9]: 228 min
- AUC(0-t) at 30 h [10]: 283 ng·h/mL
- AUC(0-inf) [11]: 345 ng·h/mL
- MRT [12]: 276 min
- bioavailability [13]: 23.5%
- half-life at 1 µM [14]: 37.1 min
- half-life at 1 µM [15]: 28.8 min
- half-life at 1 µM [16]: 10.5 min
- half-life at 1 µM [17]: 34.8 min
- half-life at 1 µM [18]: 23.8 min
- microsomal CLint at 1 µM [19]: 37.4 µL/min/mg
- microsomal CLint at 1 µM [20]: 48.2 µL/min/mg
- microsomal CLint at 1 µM [21]: 132 µL/min/mg
- microsomal CLint at 1 µM [22]: 39.8 µL/min/mg
- microsomal CLint at 1 µM [23]: 58.2 µL/min/mg
Structure (SMILES): Cc1cc2c(C(N)=O)cccc2n1-c1nc2c(c(NCc3cccc(O)c3)n1)CCC2
- Activity [31]: Active
- Activity [32]: Non-Toxic
- Activity [33]: Non-Toxic

- IC50 [1]: 1200 nM
- IC50 [2]: 49 nM
Structure (SMILES): Cc1cc2c(NC(=O)c3ccco3)cccc2n1-c1nc2c(c(NCc3cccc(O)c3)n1)CCC2

- IC50 [1]: 1100 nM
- IC50 [2]: 35 nM
Structure (SMILES): Cc1cc2c(C(=N)NO)cccc2n1-c1nc2c(c(NCc3cccc(O)c3)n1)CCC2

- IC50 [1]: 600 nM
- IC50 [2]: 31 nM
Structure (SMILES): CCONC(=O)c1cccc2c1cc(C)n2-c1nc2c(c(NCc3cccc(O)c3)n1)CCC2

- IC50 [1]: 1200 nM
- IC50 [2]: 26 nM
Structure (SMILES): C=CC(=O)Nc1cccc2c1cc(C)n2-c1nc2c(c(NCc3cccc(O)c3)n1)CCC2
